Measurements reported in patent publication US9079899B2, “Anti-staphylococcal celecoxib derivatives” (THE OHIO STATE UNIVERSITY, priority 2010, dated 2015).
≈ marks a conversion by molar mass, not a printed value. Entries after “also recorded” stand apart in the source; their conditions may differ. Read-outs that look alike come from different tables or passages of the source.

Legend:
[1] = tested on: MRSA (ATCC 33592); experiment: MIC, broth microdilution; assay type: cell-based, methicillin-resistant Staphylococcus aureus
[2] = tested on: HT-29 human colon adenocarcinoma cells; experiment: Antiproliferative assay (MTT); assay type: cell-based; conditions: for IC50: Homo sapiens, HT-29; for IC50 / IC50 HT-29 cells: 24-h exposure, 10% FBS-supplemented RPMI 1640, MTT
Method: As celecoxib has been reported to be cytotoxic to cancer cells, the growth inhibitory activities of celecoxib and selected derivatives were assessed in. HT-29 human colon adenocarcinoma cells after 24-h exposure in 10% FBS-supplemented RPMI 1640 medium.
Antiproliferative assay. The cytotoxicity of individual test agents in HT-29 human colon adenocarcinoma cells was evaluated by using the 3-(4,5-dimethylthiazol-2-yl)-2,5-diphenyltetrazolium (MTT) assay. Briefly, HT-29 cells were seeded into 96-well plates at 1×10^4 cells/well (with a minimum of 6 wells per test condition) in RPMI 1640 medium supplemented with 10% FBS and 10 μg/ml of gentamicin. After overnight incubation at 37° C. under 5% CO2, the medium from each well was removed and replenished with fresh aliquots of the same medium containing various concentrations of test agents dissolved in DMSO (final concentration, 0.1%). Control cells were treated with DMSO alone at a concentration equal to that in drug-treated cells. After 24 h of drug exposure, the medium was removed and replaced by 100 μl of 0.5 mg/ml MTT in 10% FBS-containing medium, and the cells were incubated in the CO2 incubator at 37° C. for 2 h. Subsequently, medium was removed from each well, and the reduced MTT dye was dissolved with 100 μl of DMSO per well. Absorbance at 570 nm was measured with a plate reader. The 50% inhibitory concentration (IC50) of each drug was determined from dose-response curves by using CalcuSyn software (Biosoft, Cambridge, United Kingdom).

[3] = tested on: S. aureus (ATCC 29213); experiment: MIC, broth microdilution; assay type: cell-based
[4] = tested on: MRSA (ATCC 49476); experiment: MIC, broth microdilution; assay type: cell-based, methicillin-resistant Staphylococcus aureus; conditions: Staphylococcus aureus
[5] = tested on: MRSA (SCCmec VT); experiment: MIC, broth microdilution; assay type: cell-based, methicillin-resistant Staphylococcus aureus
[6] = tested on: S. epidermidis (ATCC 12228); experiment: MIC, broth microdilution; assay type: cell-based; conditions: Staphylococcus epidermidis, ATCC12228
[7] = tested on: S. aureus (ATCC 12598); experiment: MIC, broth microdilution; assay type: cell-based; conditions: Staphylococcus aureus, ATCC12598
[8] = tested on: S. aureus; experiment: CFU of S. aureus after exposure to celecoxib at the MIC; assay type: cell-based; conditions: at the MIC of 32 μg/ml, after 24 h
Excerpt: The inventors examined the suppressive effect of celecoxib on the growth of S. aureus (ATCC 29213), S. epidermidis (ATCC 35984), and two different strains of MRSA (ATCC 33592 and SCCmec VT), as shown in Table IX.

[9] = tested on: S. epidermidis (ATCC 35984); experiment: MIC, broth microdilution; assay type: cell-based
[10] = tested on: MRSA 33592; experiment: Survival of MRSA-infected mice; assay type: in vivo, C57BL/6 mice; conditions: once, 1 h postinfection, 5×10^7 CFU i.p.
Method: (A) Effect of intraperitoneal administration of Cpd-36 and Cpd-46 on survival of methicillin-resistant Staphylococcus aureus-infected mice. C57BL/6 mice were inoculated intraperitoneally with 5×10^7 CFU of MRSA 33592. At 1 h postinfection, mice were treated intraperitoneally once with vehicle, Cpd-36 or Cpd-46 at 30 mg/kg (B) Effect of oral administration of Cpd-46 on survival of MRSA 33592-infected mice. One hour after intraperitoneal inoculation with 5×10^7 CFU of MRSA 33592, C57BL/6 mice were treated orally once with Cpd-46 at 100 mg/kg or vehicle. Survival data are presented as Kaplan-Meier survival curves for each treatment group (n=5). The difference in the mean survival times of the groups was statistically significant at P values of 0.05.

[11] = tested on: MRSA ATCC 33592; experiment: Time-kill assay; assay type: cell-based, methicillin-resistant Staphylococcus aureus
Method: Numbers of viable bacteria in the broth after each exposure period were enumerated by CFU assay, and the results expressed as CFU/ml. Points indicate means, and bars indicate SD (n=3). The dashed line represents 99.9% cell killing. Ctl, control.
Otherwise, it is considered bacteriostatic. Pankey, G. A.; Sabath, L. D. Clin. Infect. Dis., 38, 864-870 (2004). To category these novel agents, represented by compounds 9, 36, and 46, in this regard, their time-killing kinetics were assessed in MRSA ATCC 33592 over a 24-h treatment period. Overnight-grown bacteria were inoculated in cation-adjusted Muller Hinton broth (CAMHB) at a concentration of 5×10^5 CFU/ml followed by exposure to individual compounds at 2- to 8-fold their respective MIC values. […] Accordingly, compounds 36 and 46 were classified as bactericidal. As the killing was time-dependent, the antibacterial effect of these agents was not caused by the disruption of membrane integrity.
Time-kill assay. To analyze the kinetics of bacterial cell killing, MRSA ATCC 33592 cells at a density of 5×10^5 CFU/ml were treated with test agents at 2-, 4-, and 8-fold MICs in triplicate in 24-well plates. Bacterial survival in medium containing DMSO at a concentration equal to that used for drug-treated bacteria served as control. At different times after the start of drug exposure, a 100 μl aliquot of the bacterial suspension was taken from each well and serially diluted with PBS. The diluted samples were spread onto LB agar plates followed by incubation at 37° C. for 16 h. The bacterial colonies on each plate were enumerated, and the number of viable bacteria in each well was expressed as CFU per milliliter.

[12] = Staphylococcus aureus, read-out: MIC MRSA (ATCC 33592)
[13] = Staphylococcus aureus, ATCC29213, 24 h, CAMHB, 24 h, 37° C., read-out: MIC S. aureus (ATCC 29213)
[14] = Staphylococcus aureus, MRSA, read-out: MIC MRSA (SCCmec VT)
[15] = Staphylococcus aureus, ATCC29213, Table IX, S. aureus (ATCC 29213), read-out: MIC
[16] = Staphylococcus epidermidis, ATCC35984, Table IX, S. epidermidis (ATCC 35984), read-out: MIC
[17] = Table XIII, S. aureus (SSCmecVT)

Structure (SMILES): NS(=O)(=O)Nc1ccc(-n2nc(C(F)(F)F)cc2-c2ccc(-c3ccc(Br)cc3)cc2)cc1 [Compound 44, N-{4-[5-(4′-Bromobiphenyl-4-yl)-3-trifluoromethyl-pyrazol-1-yl]-phenyl}-aminosulfonamide]
- MIC [1, 12]: 1 µg/mL (≈ 1.86 µM)
- IC50 [2]: 10 µg/mL (≈ 18.6 µM)
- MIC [3, 13]: 1 µg/mL (≈ 1.86 µM)
- MIC [4]: 1 µg/mL (≈ 1.86 µM)
- MIC [5, 14]: 1 µg/mL (≈ 1.86 µM)
- MIC [6]: 1 µg/mL (≈ 1.86 µM)
- MIC [7]: 1 µg/mL (≈ 1.86 µM)

Structure (SMILES): Cc1ccc(-c2cc(C(F)(F)F)nn2-c2ccc(S(N)(=O)=O)cc2)cc1 [Celecoxib, celecoxib]
- IC50 [2]: 18 µg/mL (≈ 47.2 µM)
- MIC [3, 15]: 32 µg/mL (≈ 83.9 µM)
- decrease in CFU relative to control [8]: 6 log
- MIC [9, 16]: 16 µg/mL (≈ 42 µM)

Structure (SMILES): Cc1ccc(-c2ccc(-c3cc(C(F)(F)F)nn3-c3ccc(NS(N)(=O)=O)cc3)cc2)cc1 [Compound 43, N-{4-[5-(4′-Methylbiphenyl-4-yl)-3-trifluoromethyl-pyrazol-1-yl]-phenyl}-aminosulfonamide]
- MIC [1, 12]: 1 µg/mL (≈ 2.12 µM)
- IC50 [2]: 9 µg/mL (≈ 19 µM)
- MIC [3, 13]: 1 µg/mL (≈ 2.12 µM)
- MIC [4]: 1 µg/mL (≈ 2.12 µM)
- MIC [5, 14]: 1 µg/mL (≈ 2.12 µM)
- MIC [6]: 1 µg/mL (≈ 2.12 µM)
- MIC [7]: 1 µg/mL (≈ 2.12 µM)

Structure (SMILES): NS(=O)(=O)Nc1ccc(-n2nc(C(F)(F)F)cc2-c2c3ccccc3cc3ccccc23)cc1 [Compound 46, N-[4-(5-Anthracen-9-yl-3-trifluoromethyl-pyrazol-1-yl)-phenyl]-aminosulfonamide]
- survival of MRSA-infected mice ([10]; intraperitoneal, 30 mg/kg): improve the survival
- survival of MRSA-infected mice ([10]; oral, 100 mg/kg): improve the survival
- reduction in CFU ([11]; after 24-h exposure to 8 times the MIC, CAMHB): 99.99%
- classification bactericidal / bacteriostatic ([11]; bactericidal = 99.9% reduction in inoculum within 24 h): bactericidal; also recorded: bacteriostatic
- IC50 [2]: 20 µg/mL (≈ 41.5 µM)
- Selectivity ratio ([2]; IC50 (HT-29) / MIC against S. aureus): 40
- MIC [5, 17]: 0.5 µg/mL (≈ 1.04 µM)

Structure (SMILES): CC1(C)S[C@@H]2[C@H](NC(=O)[C@H](N)c3ccccc3)C(=O)N2[C@H]1C(=O)O [Ampicillin]
- MIC [5, 17]: > 64 µg/mL

Structure (SMILES): CS(=O)(=O)c1ccc(C2=C(c3ccccc3)C(=O)OC2)cc1 [Rofecoxib, rofecoxib, reference compound]
- MIC ([1]; Staphylococcus aureus, Table IX, MRSA (ATCC 33592), read-out: MIC): > 64 µg/mL
- MIC ([1]; Table IX, MRSA (ATCC 33592)): NE (no effect of the test agent at 64 μg/ml)
- MIC [3, 15]: > 64 µg/mL
- MIC ([3]; Table IX, S. aureus (ATCC 29213)): NE (no effect of the test agent at 64 μg/ml)
- MIC ([5]; Staphylococcus aureus, MRSA, Table IX, MRSA (SCCmec VT), read-out: MIC): > 64 µg/mL
- MIC ([5]; Table IX, MRSA (SCCmec VT)): NE (no effect of the test agent at 64 μg/ml)
- MIC [9, 16]: > 64 µg/mL
- MIC ([9]; Table IX, S. epidermidis (ATCC 35984)): NE (no effect of the test agent at 64 μg/ml)

Structure (SMILES): CN(C)[C@@H]1C(O)=C(C(N)=O)C(=O)[C@@]2(O)C(O)=C3C(=O)c4c(O)cccc4[C@@](C)(O)[C@H]3C[C@@H]12 [Tetracycline, tetracycline, reference compound]
- MIC [5, 17]: 16 µg/mL (≈ 36 µM)

Structure (SMILES): NS(=O)(=O)Nc1ccc(-n2nc(C(F)(F)F)cc2-c2ccc(-c3ccccc3)cc2)cc1 [Compound 42, N-[4-(5-Biphenyl-4-yl-3-trifluoromethyl-pyrazol-1-yl)-phenyl]-aminosulfonamide]
- MIC [1, 12]: 1 µg/mL (≈ 2.18 µM)
- IC50 [2]: 16 µg/mL (≈ 34.9 µM)
- MIC [3, 13]: 1 µg/mL (≈ 2.18 µM)
- MIC [4]: 1 µg/mL (≈ 2.18 µM)
- MIC [5, 14]: 1 µg/mL (≈ 2.18 µM)
- MIC [7]: 1 µg/mL (≈ 2.18 µM)

Structure (SMILES): NC[C@H]1O[C@H](O[C@H]2[C@H](O)[C@@H](O[C@H]3O[C@H](CO)[C@@H](O)[C@H](N)[C@H]3O)[C@H](N)C[C@@H]2N)[C@H](O)[C@@H](O)[C@@H]1O [Kanamycia]
- MIC [5, 17]: > 64 µg/mL

Structure (SMILES): Cc1ccc(-c2cc(C(F)(F)F)nn2-c2ccc(NS(N)(=O)=O)cc2)cc1 [Compound 41, N-[4-(5-p-Tolyl-3-trifluoromethyl-pyrazol-1-yl)-phenyl]-aminosulfonamide]
- MIC [1, 12]: 4 µg/mL (≈ 10.1 µM)
- IC50 [2]: 28 µg/mL (≈ 70.6 µM)
- MIC [3, 13]: 4 µg/mL (≈ 10.1 µM)
- MIC [4]: 4 µg/mL (≈ 10.1 µM)
- MIC [5, 14]: 4 µg/mL (≈ 10.1 µM)
- MIC ([9]; Staphylococcus epidermidis, ATCC35984, 24 h, CAMHB, 24 h, 37° C., read-out: MIC S. epidermidis (ATCC 35984)): 4 µg/mL (≈ 10.1 µM)
- MIC [6]: 4 µg/mL (≈ 10.1 µM)
- MIC [7]: 4 µg/mL (≈ 10.1 µM)

Structure (SMILES): NCCC(=O)Nc1ccc(-n2nc(C(F)(F)F)cc2-c2ccc3c(c2)Nc2ccccc2S3)cc1 [Compound 28]
- IC50 HT-29 cells [2]: 7.5 µg/mL (≈ 15.1 µM)
- MIC S. aureus (ATCC 29213) ([3]; CAMHB, 24 h, 37° C.): 4 µg/mL (≈ 8.07 µM)
- MIC S. epidermidis (ATCC 35984) ([9]; CAMHB, 24 h, 37° C.): 4 µg/mL (≈ 8.07 µM)

Structure (SMILES): [H]/N=C(/N)N[C@H]1[C@H](O)[C@@H](O)[C@H](O[C@@H]2O[C@@H](C)[C@](O)(C=O)[C@H]2O[C@@H]2O[C@@H](CO)[C@H](O)[C@@H](O)[C@@H]2NC)[C@@H](N/C(N)=N\[H])[C@@H]1O [Streptomycin, streptomycin, reference compound]
- MIC [5, 17]: > 64 µg/mL

Structure (SMILES): NCC(=O)Nc1ccc(-n2nc(C(F)(F)F)cc2-c2ccc3c(c2)Nc2ccccc2S3)cc1 [Compound 24]
- IC50 HT-29 cells [2]: 6.2 µg/mL (≈ 12.9 µM)
- MIC S. aureus (ATCC 29213) ([3]; CAMHB, 24 h, 37° C.): 4 µg/mL (≈ 8.31 µM)
- MIC S. epidermidis (ATCC 35984) ([9]; CAMHB, 24 h, 37° C.): 4 µg/mL (≈ 8.31 µM)

Structure (SMILES): O=C(N[C@H](CO)[C@H](O)c1ccc([N+](=O)[O-])cc1)C(Cl)Cl [Chloramphenicol, chloramphenicol, reference compound]
- MIC [5, 17]: > 64 µg/mL

Structure (SMILES): NCCC(=O)Nc1ccc(-n2nc(C(F)(F)F)cc2-c2ccc3c(ccc4ccccc43)c2)cc1 [Compound 27]
- IC50 HT-29 cells [2]: 6 µg/mL (≈ 12.6 µM)
- MIC S. aureus (ATCC 29213) ([3]; CAMHB, 24 h, 37° C.): 4 µg/mL (≈ 8.43 µM)
- MIC S. epidermidis (ATCC 35984) ([9]; CAMHB, 24 h, 37° C.): 4 µg/mL (≈ 8.43 µM)
